# Target: T1, MAPKAPK2 Recombinant Human Protein (Homo sapiens, UniProt P49137)
# T1 construct: purchased ThermoFisher pv3317
# Experiment: MK2 kinase assay (Z'-LYTE kinase assay kit)
# Conditions: inhibition of MK2 biochemical activity; 90 min incubation at room temperature
# Protocol: Materials and Reagents for Measuring Inhibition of MK2 Biochemical Activity: • 1) Assay plate: 384 Well Low Volume Black Round Bottom Polystyrene NBS Microplate (Corning, Cat.No. 4514) • 2) MK2 kinase assay kit: Z' LYTE KINASE ASSAY KIT (ThermoFisher, Cat.No. pv3177) • 3) MAPKAPK2 Recombinant Human Protein (ThermoFisher, Cat.No. pv3317) • 4) DMSO (Vetec, Cat.No. V900090) • 5) DTT (Sigma, Cat.No. D0632)
# MK2 Kinase Assay Procedure: • 1) Dispense 5 μl Kinase/Peptide Mixture to each wells of 384-well plate • 2) Add 2.5 μl 4× Test Compound to each well • 3) Add 2.5 μl 4× ATP Solution to each well • 4) After 90 minutes incubation at room temperature, add 5 μl Development Solution to each well • 5) After 60 minutes incubation at room temperature, add 5 μl stop Solution to each well • 6) Measure the Coumarin (Ex. 400 nm, Em. 445 nm) and Fluorescein (Ex. 400 nm, Em. 520 nm) emission signals on an Envision plate reader (PerkinElmer)
# T1 sequence (P49137 whole entry): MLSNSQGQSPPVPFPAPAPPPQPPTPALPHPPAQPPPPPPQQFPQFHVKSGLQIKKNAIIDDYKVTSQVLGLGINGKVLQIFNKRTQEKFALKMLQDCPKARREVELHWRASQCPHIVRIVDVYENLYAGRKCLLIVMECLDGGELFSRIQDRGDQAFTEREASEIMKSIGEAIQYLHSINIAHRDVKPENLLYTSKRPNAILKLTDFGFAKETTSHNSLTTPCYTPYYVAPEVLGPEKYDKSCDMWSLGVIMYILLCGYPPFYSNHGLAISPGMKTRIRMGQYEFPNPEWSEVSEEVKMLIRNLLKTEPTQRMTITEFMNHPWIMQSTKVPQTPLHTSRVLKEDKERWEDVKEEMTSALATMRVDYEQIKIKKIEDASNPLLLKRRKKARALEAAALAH
row,Compound,IC50
1,"C[N+](C)(C)C[C@H]1CC(=O)N(c2ccc3c(c2)Cn2cc(-c4ccc(C#N)cc4)cc2-c2nccn2-3)C1 [Example 18, (S)-1-(1-(12-(4-cyanophenyl)-9H-benzo[e]imidazo[2,1-c]pyrrolo[1,2-a][1,4]diazepin-7-yl)-5-oxopyrrolidin-3-yl)-N,N,N-trimethylmethanaminium iodide]",0.05 to 0.1 µM
2,CN(C)[C@H]1C[C@@H](NC(=O)c2ccc3c(c2)Cn2cc(-c4ccc(C#N)cc4)cc2-c2nccn2-3)C1 [Example 127],0.1 to 0.2 µM
3,CN[C@H]1CC[C@H](N(C)C(=O)c2ccc3c(c2)Cn2cc(-c4ccc(C#N)cc4)cc2-c2nccn2-3)C1 [Example 133],0.2 to 0.3 µM
4,CC(C)(N)C1CC(=O)N(c2ccc3c(c2)Cn2cc(-c4ccc(C#N)cc4)cc2-c2nccn2-3)C1 (stereo not drawn) [Example 51],< 0.05 µM
5,CN1CCCC1CNC(=O)c1ccc2c(c1)Cn1cc(-c3ccc(C#N)cc3)cc1-c1nccn1-2 (stereo not drawn) [Example 106],0.1 to 0.2 µM
6,CN(C)C1CN(C(=O)c2ccc3c(c2)Cn2cc(-c4ccc(C#N)cc4)cc2-c2nccn2-3)C1 [Example 104],0.2 to 0.3 µM
7,Cc1nnc2n1-c1ccc(N3CCN(CCN(C)C)C3=O)cc1Cn1cc(-c3ccc(C#N)cc3)cc1-2 [Example 85],< 0.05 µM
8,CC(C)(N)[C@H]1CC(=O)N(c2ccc3c(c2)Cn2cc(-c4ccc(C#N)cc4)cc2-c2nccn2-3)C1 [Example 52],< 0.05 µM
9,CC(C)(N)CNC(=O)c1ccc2c(c1)Cn1cc(-c3ccc(C#N)cc3)cc1-c1nccn1-2 [Example 111],0.2 to 0.3 µM
10,CN1CCN(C(=O)c2ccc3c(c2)Cn2cc(-c4ccc(C#N)cc4)cc2-c2nccn2-3)CC1 [Example 107],0.2 to 0.3 µM
11,CN(C)C1CCN(C(=O)c2ccc3c(c2)Cn2cc(-c4ccc(C#N)cc4)cc2-c2nccn2-3)C1 (stereo not drawn) [Example 103],0.2 to 0.3 µM
12,"N#Cc1ccc(-c2cc3n(c2)Cc2cc(N4CC(C5(CO)COC(=O)N5)CC4=O)ccc2-n2ccnc2-3)cc1 (stereo not drawn) [Example 63, 4-(7-(4-(4-(Hydroxymethyl)-2-oxooxazolidin-4-yl)-2-oxopyrrolidin-1-yl)-9H-benzo[e]imidazo[2,1-c]pyrrolo[1,2-a][1,4]diazepin-12-yl)benzonitrile]",0.05 to 0.1 µM
13,CN1CCC2(CC1)CN(C(=O)c1ccc3c(c1)Cn1cc(-c4ccc(C#N)cc4)cc1-c1nccn1-3)C2 [Example 131],0.05 to 0.1 µM
14,"Cc1nnc2n1-c1ccc(N3CCC(CCN(C)C)C3=O)cc1Cn1cc(-c3ccc(C#N)cc3)cc1-2 (stereo not drawn) [Example 81, 4-(7-(3-(2-(Dimethylamino)ethyl)-2-oxopyrrolidin-1-yl)-3-methyl-9H-benzo[e]pyrrolo[1,2-a][1,2,4]triazolo[3,4-c][1,4]diazepin-12-yl)benzonitrile]",0.05 to 0.1 µM
15,CN(C)[C@H]1CCCN(C(=O)c2ccc3c(c2)Cn2cc(-c4ccc(C#N)cc4)cc2-c2nccn2-3)C1 [Example 125],0.05 to 0.1 µM
16,"CC1(C2CC(=O)N(c3ccc4c(c3)Cn3cc(-c5ccc(C#N)cc5)cc3-c3nccn3-4)C2)CCN1 (stereo not drawn) [Example 62, 4-(7-(4-(2-methylazetidin-2-yl)-2-oxopyrrolidin-1-yl)-9H-benzo[e]imidazo[2,1-c]pyrrolo[1,2-a][1,4]diazepin-12-yl)benzonitrile]",< 0.05 µM
17,CN(C)C1CCC(C(=O)Nc2ccc3c(c2)Cn2cc(-c4ccc(C#N)cc4)cc2-c2nccn2-3)C1 (stereo not drawn) [Example 78],0.05 to 0.1 µM
18,CN1CC[C@@H](N(C)C(=O)c2ccc3c(c2)Cn2cc(-c4ccc(C#N)cc4)cc2-c2nccn2-3)C1 [Example 134],0.2 to 0.3 µM
19,"CN(C)C[C@@H]1[C@@H]2CN(c3ccc4c(c3)Cn3cc(-c5ccc(C#N)cc5)cc3-c3nccn3-4)C(=O)[C@H]12 [Example 45, 4-(7-((1R,5S,6R)-6-((Dimethylamino)methyl)-2-oxo-3-azabicyclo[3.1.0]hexan-3-yl)-9H-benzo[e]imidazo[2,1-c]pyrrolo[1,2-a][1,4]diazepin-12-yl)benzonitrile]",0.05 to 0.1 µM
20,"CN1CCN2C(=O)N(c3ccc4c(c3)Cn3cc(-c5ccc(C#N)cc5)cc3-c3nccn3-4)C[C@H]2C1 [Example 60, (R)-4-(7-(7-Methyl-3-oxohexahydroimidazo[1,5-a]pyrazin-2(3H)-yl)-9H-benzo[e]imidazo[2,1-c]pyrrolo[1,2-a][1,4]diazepin-12-yl)benzonitrile]",< 0.05 µM
21,N#Cc1ccc(-c2cc3n(c2)Cc2cc(N4C[C@@H](CN)OC4=O)ccc2-n2ccnc2-3)cc1 [Example 2],0.05 to 0.1 µM

row,Compound,IC50
1,CN(C)C[C@@H]1CCCN1C(=O)c1ccc2c(c1)Cn1cc(-c3ccc(C#N)cc3)cc1-c1nccn1-2 [Example 114],0.1 to 0.2 µM
2,"N#Cc1ccc(-c2cc3n(c2)Cc2cc(N4C[C@H](CO)NCC4=O)ccc2-n2ccnc2-3)cc1 [Example 80, (R)-4-(7-(5-(Hydroxymethyl)-2-oxopiperazin-1-yl)-9H-benzo[e]imidazo[2,1-c]pyrrolo[1,2-a][1,4]diazepin-12-yl)benzonitrile]",0.05 to 0.1 µM
3,CN(CC(CN)CO)C(=O)c1ccc2c(c1)Cn1cc(-c3ccc(C#N)cc3)cc1-c1nccn1-2 (stereo not drawn) [Example 136],0.05 to 0.1 µM
4,CN(C)C[C@H]1CCCN1C(=O)c1ccc2c(c1)Cn1cc(-c3ccc(C#N)cc3)cc1-c1nccn1-2 [Example 113],0.2 to 0.3 µM
5,CC(C)(N)C1CN(c2ccc3c(c2)Cn2cc(-c4ccc(C#N)cc4)cc2-c2nccn2-3)C(=O)O1 (stereo not drawn) [Example 20],< 0.05 µM
6,N#Cc1ccc(-c2cc3n(c2)Cc2cc(C(=O)NCCN4CCC4)ccc2-n2ccnc2-3)cc1 [Example 118],0.1 to 0.2 µM
7,CN(C)[C@@H]1CCCN(C(=O)c2ccc3c(c2)Cn2cc(-c4ccc(C#N)cc4)cc2-c2nccn2-3)C1 [Example 124],0.05 to 0.1 µM
8,Cc1nnc2n1CCN(C(=O)c1ccc3c(c1)Cn1cc(-c4ccc(C#N)cc4)cc1-c1nccn1-3)C2 [Example 108],0.2 to 0.3 µM
9,"CC(C)(N)C1CCN(c2ccc3c(c2)Cn2cc(-c4ccc(C#N)cc4)cc2-c2nccn2-3)C1=O (stereo not drawn) [Example 44, 4-(7-(3-(2-Aminopropan-2-yl)-2-oxopyrrolidin-1-yl)-9H-benzo[e]imidazo [2,1-c]pyrrolo[1,2-a][1,4]diazepin-12-yl)benzonitrile]",0.05 to 0.1 µM
10,"CN(C)CC1(C)CCN(c2ccc3c(c2)Cn2cc(-c4ccc(C#N)cc4)cc2-c2nccn2-3)C1=O (stereo not drawn) [Example 39, 4-(7-(3-((Dimethylamino)methyl)-3-methyl-2-oxopyrrolidin-1-yl)-9H-benzo[e]imidazo[2,1-c]pyrrolo[1,2-a][1,4]diazepin-12-yl)benzonitrile]",0.1 to 0.2 µM
11,"[2H]C([2H])([2H])N(C([2H])([2H])[2H])C([2H])([2H])C1CCN(c2ccc3c(c2)Cn2cc(-c4ccc(C#N)cc4)cc2-c2nccn2-3)C1=O (stereo not drawn) [Example 38, 4-(7-(3-((Dideuteratedmethylamino)deuteratedmethyl)-2-oxopyrrolidin-1-yl)-9H-benzo[e]imidazo[2,1-c]pyrrolo[1,2-a][1,4]diazepin-12-yl)benzonitrile]",< 0.05 µM
12,CN1CC(C)(CNC(=O)c2ccc3c(c2)Cn2cc(-c4ccc(C#N)cc4)cc2-c2nccn2-3)C1 [Example 121],0.05 to 0.1 µM
13,"CN(C)CC1CCN(C(=O)c2ccc3c(c2)Cn2cc(-c4ccc(C#N)cc4)cc2-c2nccn2-3)C1 (stereo not drawn) [Example 112, 4-(7-(3-((dimethylamino)methyl)pyrrolidine-1-carbonyl)-9H-benzo[e]imidazo [2,1-c]pyrrolo[1,2-a][1,4]diazepin-12-yl)benzonitrile]",0.05 to 0.1 µM
14,"CN(C)C[C@H]1CC(=O)N(c2ccc3c(c2F)Cn2cc(-c4ccc(C#N)cc4)cc2-c2nccn2-3)C1 [Example 92, (R)-4-(7-(4-((Dimethylamino)methyl)-2-oxopyrrolidin-1-yl)-8-fluoro-9H-benzo[e]imidazo[2,1-c]pyrrolo[1,2-a][1,4]diazepin-12-yl)benzonitrile]",0.05 to 0.1 µM
15,"N#Cc1ccc(-c2cc3n(c2)Cc2cc(N4CCN(C5CC5)CC4=O)ccc2-n2ccnc2-3)cc1 [Example 31, 4-(7-(4-Cyclopropyl-2-oxopiperazin-1-yl)-9H-benzo[e]imidazo[2,1-c]pyrrolo [1,2-a][1,4]diazepin-12-yl)benzonitrile]",0.05 to 0.1 µM
16,"CN1CC(N(C)C(=O)c2ccc3c(c2)Cn2cc(-c4ccc(C#N)cc4)cc2-c2nccn2-3)C1 [Example 132, 12-(4-Cyanophenyl)-N-methyl-N-(1-methylazetidin-3-yl)-9H-benzo[e]imidazo [2,1c]pyrrolo[1,2-a][1,4]diazepine-7-carboxamide]",0.05 to 0.1 µM
17,CN1CC[C@H](NC(=O)c2ccc3c(c2)Cn2cc(-c4ccc(C#N)cc4)cc2-c2nccn2-3)C1 [Example 102],< 0.05 µM
18,"CN(C)CCC1CCN(c2ccc3c(c2)Cn2cc(-c4ccc(C#N)cc4)cc2-c2nccn2-3)C1=O (stereo not drawn) [Example 40, 4-(7-(3-(2-(Dimethylamino)ethyl)-2-oxopyrrolidin-1-yl)-9H-benzo[e]imidazo [2,1-c]pyrrolo[1,2-a][1,4]diazepin-12-yl)benzonitrile]",< 0.05 µM
19,CN(C)CC(C)(C)NC(=O)c1ccc2c(c1)Cn1cc(-c3ccc(C#N)cc3)cc1-c1nccn1-2 [Example 130],0.1 to 0.2 µM
20,"N#Cc1ccc(-c2cc3n(c2)Cc2cc(N4C[C@@H](C5(N)CC5)CC4=O)ccc2-n2ccnc2-3)cc1 (stereo in doubt) [Example 49, (S)-4-(7-(4-(1-aminocyclopropyl)-2-oxopyrrolidin-1-yl)-9H-benzo[e]imidazo [2,1-c]pyrrolo[1,2-a][1,4]diazepin-12-yl)benzonitrile]",< 0.05 µM
21,CN(C)[C@H]1CC[C@H](NC(=O)c2ccc3c(c2)Cn2cc(-c4ccc(C#N)cc4)cc2-c2nccn2-3)C1 [Example 122],0.3 to 0.4 µM

# Reference: US20240140958A1, “FUSED QUADRACYCLIC COMPOUNDS, COMPOSITIONS AND USES THEREOF” (Tabomedex Biosciences, Inc., priority 2021, published 2024)
